{
  "source": "paper PMC10216263",
  "about": "“Favorable Preclinical Pharmacological Profile of a Novel Antimalarial Pyrrolizidinylmethyl Derivative of 4-amino-7-chloroquinoline with Potent In Vitro and In Vivo Activities” (Biomolecules, 2023)",
  "key": {"[1]": {"system": "P. falciparum 3D7 (CQ-S)", "test": "In vitro antimalarial activity, [3H]-hypoxanthine incorporation (LSHTM)", "assay_type": "cell-based", "details": "Plasmodium falciparum, 3D7; 72 h, [3H]-hypoxanthine incorporation, mean of 3 experiments; read-out: P. falciparum IC50 nM, 3D7 (CQ-S)"}, "[2]": {"system": "P. falciparum field isolates", "test": "Chemosensitivity assay on field isolates", "assay_type": "cell-based", "procedure": "(§1) The 10 P. vivax and 10 P. falciparum isolates used in this study were obtained from Mae Sod District, Tak Province, Thailand. […] Isolates were collected in 5 mL lithium-heparinized tubes and sent to the laboratory within 5–6 h."}, "[3]": {"system": "P. vivax field isolates", "test": "Chemosensitivity assay on field isolates", "assay_type": "cell-based", "procedure": "as §1"}, "[4]": {"system": "P. chabaudi AS", "test": "Four-day suppressive Peters' test, oral", "assay_type": "in vivo, P. chabaudi in CD1 mice", "details": "once a day for 4 days, parasitemia day 4, CD1 mice", "procedure": "Groups of five CD1 mice were inoculated i.v., with 4 × 10^6 infected erythrocytes/mice. Compounds, dissolved in standard suspending formula (SSV) (0.5% sodium carboxymethylcellulose, 0.5% benzyl alcohol, 0.4% Tween 80, and 0.9% NaCl), were administered once a day for 4 days via oral gavage, starting two hours post-infection. […] Parasitemia was evaluated using microscopic examination of Giemsa-stained blood films taken on day four, processed using MICROSOFT® EXCEL spreadsheets (Microsoft Corp., Redmond, WA, USA), and expressed as percentages of inhibition from the arithmetic mean parasitemia of each group in relation to the untreated group. ED50 and ED90 values were calculated using GraphPad Prism 6 (GraphPad Software Inc., La Jolla, CA, USA)."}, "[5]": {"test": "Intrinsic clearance in hepatocytes", "assay_type": "in vitro ADME", "procedure": "(§2) An automatic liquid handling system (Multiprobe II EX, Packard) was used for sampling. At 0, 10, 20, 30, 60 and 90 min, […] aliquots of the incubates were taken and added with […] of ice-cold ACN and […] of 1 µM warfarin in ACN (internal standard), and samples centrifuged at 2000 rpm for 20 min. The analysis of supernatant was conducted using LC-MS/MS. MG3 was incubated in the medium under the same conditions to evaluate the chemical stability; 7-ethoxycoumarin (7-ETC) 1 µM and 7-hydroxycoumarin (7-HC) 30 µM were utilized as positive controls for Phase I and Phase II activities. […] Half-life and CLint were determined from the concentration (counts) remaining at the different sampling points using the LC-MS/MS method. The slope was calculated using linear regression analysis of the curve (natural logarithmic area of the compound remaining against the time) and converted into the half-life (t1/2) and CLint expressed as µL/min/million cells and mL/min/kg, respectively."}, "[6]": {"system": "dog hepatocytes", "test": "Intrinsic clearance in hepatocytes", "assay_type": "in vitro ADME", "details": "1 µM", "procedure": "as §2"}, "[7]": {"system": "human hepatocytes", "test": "Intrinsic clearance in hepatocytes", "assay_type": "in vitro ADME", "details": "1 µM", "procedure": "as §2"}, "[8]": {"system": "monkey hepatocytes", "test": "Intrinsic clearance in hepatocytes", "assay_type": "in vitro ADME", "details": "1 µM", "procedure": "as §2"}, "[9]": {"system": "mouse hepatocytes", "test": "Intrinsic clearance in hepatocytes", "assay_type": "in vitro ADME", "details": "1 µM", "procedure": "as §2"}, "[10]": {"system": "rat hepatocytes", "test": "Intrinsic clearance in hepatocytes", "assay_type": "in vitro ADME", "details": "1 µM", "procedure": "as §2"}, "[11]": {"test": "Plasma protein binding by ultrafiltration, human, rat and dog", "assay_type": "in vitro ADME", "details": "male, SD (rat), Beagle (dog), read-out: free fraction", "procedure": "Plasma protein binding was performed via ultrafiltration (30,000 D cutoff, Amicon, Merck) with heparinized blood samples (male SD rats, Charles River Italy, and male Beagle dogs, Marshall Farms, Europe, Lyon, France) and fresh and frozen heparinized human blood samples collected from fasted healthy male subjects (at least two subjects for plasma samples), were supplied by AAI, Germany. MG3 final concentrations of 100, 300 and 1000 ng/mL were prepared using a 10 mg/mL stock solution while control samples at the same concentrations diluted in DPBS buffer (Dulbecco’s Phosphate Buffered Saline, Sigma-Aldrich) to evaluate the recovery. […] The percentage of bound drug (% Fbound) and of unbound drug (% Ffree) was determined using the following equations: % Fbound = [(Conc. Total–Conc. Free)/Conc. […] Total is the compound concentration determined in plasma and Conc. Free is the compound concentration determined in the ultrafiltrated samples. Results were expressed as % of binding and % of free fraction (single values and mean ± SD). […] Blood to plasma ratio was calculated as: Conc. in blood/Conc. in plasma; where, Conc. is the compound concentration determined in blood and in plasma at the same time of incubation."}, "[12]": {"system": "P. falciparum D10 (CQ-S)", "parameters": "method as in PMID 18538567", "details": "72 h incubation, pLDH method, mean of 3 experiments; cited from earlier work"}, "[13]": {"system": "beta-hematin (malaria pigment) formation", "parameters": "method as in PMID 18538567", "details": "in vitro BHIA; cited from earlier work"}, "[14]": {"biological_target": "hERG K+ channel (Homo sapiens, UniProt Q12809)", "sequence (Q12809 whole entry)": "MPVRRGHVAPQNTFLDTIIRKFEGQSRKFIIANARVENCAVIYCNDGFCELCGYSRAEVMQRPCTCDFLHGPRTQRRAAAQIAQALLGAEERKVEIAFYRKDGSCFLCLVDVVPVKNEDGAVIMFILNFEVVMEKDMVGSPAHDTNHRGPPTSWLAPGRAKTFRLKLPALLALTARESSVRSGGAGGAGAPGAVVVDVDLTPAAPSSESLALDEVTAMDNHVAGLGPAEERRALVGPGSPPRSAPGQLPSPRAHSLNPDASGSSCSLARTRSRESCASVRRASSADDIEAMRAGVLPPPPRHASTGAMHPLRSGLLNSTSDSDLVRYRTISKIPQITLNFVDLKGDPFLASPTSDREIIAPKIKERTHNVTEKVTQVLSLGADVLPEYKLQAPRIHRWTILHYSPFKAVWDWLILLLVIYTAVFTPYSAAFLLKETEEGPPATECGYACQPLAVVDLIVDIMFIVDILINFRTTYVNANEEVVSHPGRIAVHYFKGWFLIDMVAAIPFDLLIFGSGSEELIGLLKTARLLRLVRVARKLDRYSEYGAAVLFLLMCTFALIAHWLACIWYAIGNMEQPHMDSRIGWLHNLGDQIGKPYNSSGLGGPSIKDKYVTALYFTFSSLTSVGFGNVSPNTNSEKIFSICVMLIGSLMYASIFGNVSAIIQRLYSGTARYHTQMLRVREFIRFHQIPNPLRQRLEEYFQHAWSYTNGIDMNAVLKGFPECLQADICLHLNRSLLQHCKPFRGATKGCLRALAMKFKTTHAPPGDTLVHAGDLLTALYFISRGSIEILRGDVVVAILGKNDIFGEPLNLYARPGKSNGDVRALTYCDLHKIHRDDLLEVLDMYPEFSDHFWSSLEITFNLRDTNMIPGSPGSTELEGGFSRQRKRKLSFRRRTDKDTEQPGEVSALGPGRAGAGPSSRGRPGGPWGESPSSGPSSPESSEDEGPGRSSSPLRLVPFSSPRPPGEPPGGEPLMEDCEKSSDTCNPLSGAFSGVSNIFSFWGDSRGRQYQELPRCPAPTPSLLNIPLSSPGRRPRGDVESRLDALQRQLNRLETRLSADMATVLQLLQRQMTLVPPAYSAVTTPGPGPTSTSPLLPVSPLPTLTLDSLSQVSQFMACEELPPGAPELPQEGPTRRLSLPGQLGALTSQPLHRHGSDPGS", "test": "[3H]-astemizole binding assay in HEK293 cell membranes", "protocol": "Methods for hERG interaction\nMembranes were prepared from HEK293 cells stably transfected with the human ERG (ether-a-go-go related\ngene; U04270) from Cytomix.\nwas used as radioligand. Non-specific binding was evaluated in the presence of an excess of 10 µM cold\nThe concentration-response curve was performed in a range from 0.03 to 30 µM (seven"}},
  "note": "Where two headings read alike, the source gives them in different places.",
  "data": [
    {"smiles": "Clc1ccc2c(NCC34CCCN3CCC4)ccnc2c1", "note": "[MG3, 7-Chloro-N-((hexahydro-1H-pyrrolizin-7a-yl)methyl)quinolin-4-amine]", "values": [
      {"measurement": "IC50", "setting": "[1]", "result": 12.6, "unit": "nM"},
      {"measurement": "IC50", "setting": "[2]; Plasmodium falciparum, read-out: P. falciparum IC50 nM, Field Isolates, mean of 10 field isolates, Thai Burmese Border", "result": "< 15", "unit": "nM"},
      {"measurement": "IC50", "setting": "[2]; read-out: P. falciparum IC50 nM, Field Isolates, mean of 10 field isolates, Thai Burmese Border", "result": 20.9, "unit": "nM"},
      {"measurement": "IC50 lower than that of CQ", "setting": "[3]; P. vivax isolates", "result": 40, "unit": "%"},
      {"measurement": "IC50", "setting": "[3]; Plasmodium vivax, read-out: P. vivax IC50 nM, Field Isolates", "result": 50.3, "unit": "nM"},
      {"measurement": "ED50", "setting": "[4]; Plasmodium chabaudi, 96 h, read-out: ED50 (95% CI) Mean", "result": 4.69, "unit": "mg/kg"},
      {"measurement": "ED90 (95% CI) Mean", "setting": "[4]", "result": "9.80 (8.86–10.6) mg/kg"},
      {"measurement": "CLint scaled at 1 µM", "setting": "[5]; dog hepatocytes", "result": 111, "unit": "mL/min/kg"},
      {"measurement": "CLint scaled at 1 µM", "setting": "[5]; human hepatocytes", "result": 4.9, "unit": "mL/min/kg"},
      {"measurement": "CLint scaled at 1 µM", "setting": "[5]; monkey hepatocytes", "result": 44, "unit": "mL/min/kg"},
      {"measurement": "CLint scaled at 1 µM", "setting": "[5]; mouse hepatocytes", "result": 196, "unit": "mL/min/kg"},
      {"measurement": "CLint scaled at 1 µM", "setting": "[5]; rat hepatocytes", "result": 51, "unit": "mL/min/kg"},
      {"measurement": "Half/life", "setting": "[6]", "result": 0.8, "unit": "h"},
      {"measurement": "Half/life", "setting": "[7]", "result": 5.67, "unit": "h"},
      {"measurement": "Half/life", "setting": "[8]", "result": 1.43, "unit": "h"},
      {"measurement": "Half/life", "setting": "[9]", "result": 0.517, "unit": "h"},
      {"measurement": "Half/life", "setting": "[10]", "result": 1.08, "unit": "h"},
      {"measurement": "fraction unbound", "setting": "[11]", "result": "0.16 to 0.33"},
      {"measurement": "IC50", "setting": "[12]", "result": 30.6, "unit": "nM"},
      {"measurement": "inhibition of beta-hematin formation", "setting": "[13]", "result": "able to inhibit the formation of beta-hematin"},
      {"measurement": "Ki", "setting": "[14]", "result": "553 ± 45", "unit": "nM"}
    ]}
  ]
}
